Several values for one entry are separate records, joined by “and”; a condition that tells them apart may be missing. Equal entries are not always repeated. Entries after “also recorded” stand apart in the source; their conditions may differ.
Assays:
[1] = test system: SARS-CoV-2 anti-spike-protein (spike) antibody; assay: SARS-CoV-2 anti-spike IgG ELISA before and after COVID-19 vaccination in RMS patients on ponesimod (study AC-058B202); format: in vivo, human
Experimental: (§1) Participants in this study receiving 20 mg ponesimod who reported COVID-19 vaccination were analyzed. Blood samples collected before and at least 3 weeks after COVID-19 vaccination were tested for SARS-CoV-2 anti-spike-protein (spike) antibody concentrations (Human SARS-CoV-2 PreSpike IgG ELISA, Nexelis). Response to vaccination was defined as seroconversion in case of negative pre-vaccination antibody testing, or a 4-fold antibody concentration increase in case of positive pre-vaccination antibody result. COVID-19 infection adverse events (AEs) were evaluated in this study sub-population.
Of the 134 participants, 49 participants had both pre- and post-vaccination blood samples tested for anti-spike antibody concentrations. Out of these 49 participants, 40 (81.6%) met the pre-specified definition of response to COVID-19 vaccination. […] Response was defined as pre-vaccination titer≤lower limit of quantification (LLOQ) and post-vaccination titer >LLOQ; or pre-vaccination titer >LLOQ (i.e., seroconversion in case of negative pre-vaccination antibody testing) and post-vaccination titer >4× increase (i.e., a 4-fold antibody concentration increase in case of positive pre-vaccination antibody result).
Patients in the Phase 2 extension study AC-058B202 receiving ponesimod 20 mg who reported COVID-19 vaccination were included in this analysis. Blood samples collected before and at least 3 weeks after vaccination were evaluated with Human SARS-CoV-2 PreSpike IgG (spike antibody) enzyme-linked immunoassay (Nexelis). A responder to vaccination was defined as seroconversion in case of negative pre-vaccination antibody testing, or a 4-fold antibody concentration increase in case of positive pre-vaccination antibody result. Responder analysis was performed by vaccine type, and by pre-vaccination lymphocyte count.

influenza A/PR/8/34 = assay: Neutralizing antibody response to inactivated influenza A/PR/8/34 immunization in mice on ponesimod chow; format: in vivo, female BALB/c mice
Text: The neutralizing antibody response to a single intramuscular injection of purified and inactivated influenza A/PR/8/34 was compared in female BALB/c mice that were maintained on different oral ponesimod regimens (Group 1: standard chow; Group 2: continuous specialty chow with ponesimod at 1000 ppm; Group 3: specialty chow with a 4-day discontinuation around immunization).
Mean percentage inhibition of viral infection by A/PR/8/34 with serum samples, ±SEM.
Table 5 presents data regarding dilution from neat serum that results in 50% inhibition of viral infection (ID50).

[2] = COVID-19 infection adverse events in vaccinated RMS patients on ponesimod (study AC-058B202); format: in vivo, human
Experimental: as §1

influenza vaccine = conditions: observed previously; cited from earlier work
[3] = inactivated virus vaccines, post-vaccination
[4] = inactivated virus vaccines, pre-vaccination
[5] = mRNA vaccines, post-vaccination
[6] = mixed vaccines, post-vaccination
[7] = mixed vaccines, pre-vaccination
[8] = subjects pre-vaccination negative
[9] = subjects pre-vaccination positive
[10] = unspecified vaccines, post-vaccination
[11] = unspecified vaccines, pre-vaccination
[12] = viral vector vaccines, post-vaccination

## CCC/N=C1\S/C(=C\c2ccc(OC[C@H](O)CO)c(Cl)c2)C(=O)N1c1ccccc1C [ponesimod, (R)-5-[3-chloro-4-(2,3-dihydroxy-propoxy)-benz[Z]ylidene]-2-([Z]-propylimino)-3-o-tolyl-thiazolidin-4-one]
[1]; all vaccines, 1st vaccine regimen, ponesimod 20 mg
  Fold increase from baseline of S binding antibody, geometric mean (95% CI): 12.90 (7.64; 21.78)
[1]; all vaccines, seroconversion or >4-fold increase
  Responders (n/N) (%) (95% CI): 40 (81.6%) n/N (%)
[1]; inactivated virus vaccines
  Fold increase from baseline, geometric mean (95% CI): 1.29 (0.50; 3.32)
  Responders (n/N) (%) (95% CI): 2 (33.3%) n/N (%)
[1]; [3]
  Positive sample n (%) (95% CI): 6 (66.7%) (29.93; 92.51) n (%)
  S binding antibody concentration, geometric mean (95% CI): 84.22 (<LLOQ; 189.22) EU/mL
[1]; [4]
  Positive sample n (%) (95% CI): 3 (50.0%) (11.81; 88.19) n (%)
  S binding antibody concentration, geometric mean (95% CI): 65.88 (<LLOQ; 203.92) EU/mL
[1]; mRNA COVID-19 vaccines and/or pre-vaccination lymphocyte counts ≥500 cells/mm^3
  Patients meeting antibody concentration responder criteria: > 90%
[1]; mRNA vaccines
  Fold increase from baseline, geometric mean (95% CI): 20.68 (11.35; 37.68)
  Responders (n/N) (%) (95% CI): 29 (90.6%) n/N (%)
[1]; [5]
  Positive sample n (%) (95% CI): 62 (88.6%) (78.72; 94.93) n (%)
  S binding antibody concentration, geometric mean (95% CI): 833.22 (513.88; 1351.00) EU/mL
[1]; mRNA vaccines, pre-vaccination
  Positive sample n (%) (95% CI): 5 (15.6%) (5.28; 32.79) n (%)
[1]; mixed or unspecified vaccine types, 4 participants
  Responders n (%): 4 (100%) n (%)
[1]; mixed vaccines
  Fold increase from baseline, geometric mean: 11.49
[1]; [6]
  Positive sample n (%): 5 (100.0%) n (%)
  S binding antibody concentration, geometric mean: 1525.40 EU/mL
[1]; [7]
  Positive sample n (%): 1 (33.3%) n (%)
  S binding antibody concentration, geometric mean: <LLOQ
[1]; post-vaccination, all vaccines, 1st vaccine regimen, ponesimod 20 mg
  SARS-CoV-2 S binding antibody concentration, geometric mean (95% CI): 621.25 (414.96; 930.08) EU/mL
[1]; post-vaccination, all vaccines, positive = value > LLOQ
  Positive sample n (%) (95% CI): 89 (86.4%)(78.25; 92.37) n (%)
[1]; pre-vaccination lymphocyte count <500 cells/mm^3, 16 participants
  Responders n (%): 9 (56.3%) n (%)
[1]; pre-vaccination lymphocyte count ≥500 cells/mm^3, 32 participants
  Responders n (%): 30 (93.8%) n (%)
[1]; pre-vaccination, all vaccines, positive = value > LLOQ
  Positive sample n (%) (95% CI): 11 (22.4%) (11.77; 36.62) n (%)
[1]; [8]
  Post-vaccination Negative N (%): 5 (13.2%) N (%)
  Post-vaccination Responder N (%): 33 (86.8%) N (%)
[1]; subjects pre-vaccination negative (seroconversion)
  Post-vaccination Positive N (%): 33 (86.8%) N (%)
[1]; [9]
  Post-vaccination Negative N (%): 0 N (%)
  Post-vaccination Positive N (%): 11 (100.0%) N (%)
  Post-vaccination Responder N (%): 7 (63.6%) N (%)
[1]; unspecified vaccines
  Fold increase from baseline, geometric mean: 182.01
[1]; [10]
  Positive sample n (%): 2 (100.0%) n (%)
  S binding antibody concentration, geometric mean: 944.31 EU/mL
[1]; [11]
  Positive sample n (%): 0 n (%)
  S binding antibody concentration, geometric mean: <LLOQ
[1]; viral vector vaccines
  Fold increase from baseline, geometric mean (95% CI): 7.76 (2.22; 27.11)
  Responders (n/N) (%) (95% CI): 5 (71.4%) n/N (%)
[1]; [12]
  Positive sample n (%) (95% CI): 14 (82.4%) (56.57; 96.2) n (%)
  S binding antibody concentration, geometric mean (95% CI): 390.49 (140.01; 1089.07) EU/mL
[1]; viral vector vaccines, pre-vaccination
  Positive sample n (%) (95% CI): 2 (28.6%) (3.67; 70.96) n (%)
Group 3, after a 2-day wash-out period
  Plasma drug levels after wash-out: cleared from plasma
Groups 2 and 3, by Day 5, ponesimod chow 1000 ppm
  Plasma drug levels: sufficiently high to reduce lymphocyte counts
Influenza A/PR/8/34; Concomitant (Group 2), Day 35
  Inhibition titer: dilution from neat serum that results in 50% inhibition of viral infection (ID50): 0.004
Influenza A/PR/8/34; Concomitant (Group 2), Day 63
  Inhibition titer: dilution from neat serum that results in 50% inhibition of viral infection (ID50): 0.003
Influenza A/PR/8/34; Concomitant (Group 2), Day 91
  Inhibition titer: dilution from neat serum that results in 50% inhibition of viral infection (ID50): 0.004
Influenza A/PR/8/34; Concomitant (Group 2, continuous ponesimod chow 1000 ppm), Day −1
  Inhibition titer: dilution from neat serum that results in 50% inhibition of viral infection (ID50): 0.050
Influenza A/PR/8/34; Discontinued (Group 3), Day 35
  Inhibition titer: dilution from neat serum that results in 50% inhibition of viral infection (ID50): 0.001
Influenza A/PR/8/34; Discontinued (Group 3), Day 63
  Inhibition titer: dilution from neat serum that results in 50% inhibition of viral infection (ID50): 0.002
Influenza A/PR/8/34; Discontinued (Group 3), Day 91
  Inhibition titer: dilution from neat serum that results in 50% inhibition of viral infection (ID50): 0.003
Influenza A/PR/8/34; Discontinued (Group 3, 4-day discontinuation around immunization), Day −1
  Inhibition titer: dilution from neat serum that results in 50% inhibition of viral infection (ID50): 0.001
Influenza A/PR/8/34; Group 2, continuously on ponesimod chow, inactivated H1N1 influenza vaccine
  Vaccine (antibody) response compared to control mice: attenuated vaccine response; also recorded: blunted, but not absent
[2]; >=14 D Post Vx
  COVID-19 infection AEs leading to death, n (%): 0 n (%)
  COVID-19 infection AEs leading to treatment discontinuation, n (%): 0 n (%)
  COVID-19 infection AEs leading to treatment interruption, n (%): 4 (3.0%) n (%)
  COVID-19 infection AEs, severity Mild, n (%): 13 (9.7%) n (%)
  COVID-19 infection AEs, severity Moderate, n (%): 4 (3.0%) n (%)
  COVID-19 infection AEs, severity Severe, n (%): 0 n (%)
  Serious COVID-19 infection AEs, n (%): 0 n (%)
  Subjects with COVID-19 infection AEs, n (%): 17 (12.7%) n (%)
[2]; >=28 D Post Vx
  COVID-19 infection AEs leading to death, n (%): 0 n (%)
  COVID-19 infection AEs leading to treatment discontinuation, n (%): 0 n (%)
  COVID-19 infection AEs leading to treatment interruption, n (%): 4 (3.0%) n (%)
  COVID-19 infection AEs, severity Mild, n (%): 13 (9.7%) n (%)
  COVID-19 infection AEs, severity Moderate, n (%): 4 (3.0%) n (%)
  COVID-19 infection AEs, severity Severe, n (%): 0 n (%)
  Serious COVID-19 infection AEs, n (%): 0 n (%)
  Subjects with COVID-19 infection AEs, n (%): 17 (12.7%) n (%)
[2]; Post-Vx
  COVID-19 infection AEs leading to death, n (%): 0 n (%)
  COVID-19 infection AEs leading to treatment discontinuation, n (%): 0 n (%)
  COVID-19 infection AEs leading to treatment interruption, n (%): 4 (3.0%) n (%)
  COVID-19 infection AEs, severity Mild, n (%): 13 (9.7%) n (%)
  COVID-19 infection AEs, severity Moderate, n (%): 4 (3.0%) n (%)
  COVID-19 infection AEs, severity Severe, n (%): 0 n (%)
  Serious COVID-19 infection AEs, n (%): 0 n (%)
  Subjects with COVID-19 infection AEs, n (%): 17 n (%) and 17 (12.7%) n (%)
[2]; Pre-Vx
  COVID-19 infection AEs leading to death, n (%): 0 n (%)
  COVID-19 infection AEs leading to treatment discontinuation, n (%): 0 n (%)
  COVID-19 infection AEs leading to treatment interruption, n (%): 5 (3.7%) n (%)
  COVID-19 infection AEs, severity Mild, n (%): 18 (13.4%) n (%)
  COVID-19 infection AEs, severity Moderate, n (%): 2 (1.5%) n (%)
  COVID-19 infection AEs, severity Severe, n (%): 0 n (%)
  Serious COVID-19 infection AEs, n (%): 0 n (%)
  Subjects with COVID-19 infection AEs, n (%): 20 n (%) and 20 (14.9%) n (%)
[2]; Total
  COVID-19 infection AEs leading to treatment interruption, n (%): 7 (5.2%) n (%)
  COVID-19 infection AEs, severity Mild, n (%): 28 (20.9%) n (%)
  COVID-19 infection AEs, severity Moderate, n (%): 6 (4.5%) n (%)
  Subjects with COVID-19 infection AEs, n (%): 33 (24.6%) n (%)

## CCc1cc(/C(C)=N/OCc2ccc(C3CCCCC3)c(C(F)(F)F)c2)ccc1CN1CC(C(=O)O)C1 [siponimod]
Influenza vaccine
  Vaccination response to the influenza vaccine: reduced vaccination response
